PubChem BioAssay AID1919007 (Molecular Pharmacology Branch, DTP, NCI, 2023)
Values joined by “and” are separate entries in the source; they are usually repeats but may differ in a detail not shown here. Identical values can stand only once.

Tested on: A498 complex spheroids with HUVEC/MSC, growth
Assay: Anticancer human tumor A498 cell line growth inhibition [AhR];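 further: seven day exposure starting three days after spheroid seeding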;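 on viability, T/C: luminescence signal used as a surrogate for viable cells; luminescence viability scaled so 100% equals DMSO vehicle wells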
Conditions: for viability, T/C: stronger effect = lower value
Text: Multicellular complex tumor spheroid response to aryl hydrocarbon receptor antagonists in combination with a variety of drugs and investigational agents in selected tumor cell lines
The current study was undertaken to assess response to aryl hydrocarbon receptor antagonists in combination with standard-of-care drugs and investigational agents in solid tumor complex spheroid models. Complex spheroids include a stromal component modeled by human endothelial cells (HUVEC) and fibroblasts modeled by human mesenchymal stem cells (MSCs). The concentration ranges selected for each drug and investigational agent were based upon clinically achievable concentrations if the clinical Cmax of the agent was known.
Compounds. The drugs and investigational agents: BAY 2416964 (NSC825713), GNF351 (NSC835774), CH-223191 (NSC835775), CPI-455 (NSC825282), aza-TdCyd (NSC777586), decitabine (NSC127716), belinostat (NSC758774), entinostat (NSC756642), pevonedistat (NSC761192), tazemetostat (NSC777109), talazoparib (NSC765396), olaparib (NSC753686), selinexor (NSC780203), nedisertib (M3814, NSC802822), bortezomib (NSC756655), venetoclax (NSC766270), doxorubicin (NSC123127), elimusertib (BAY189344, NSC800525), ceralasertib (AZD6738, NSC777638), TAK-243 (NSC785004), alisertib (NSC759677), etoposide (NSC141540), topotecan (NSC609699), eribulin (NSC707389), gemcitabine (NSC613327), carboplatin (NSC241240), cisplatin (NSC119875), and SN-38 (NSC673596) were obtained from the National Cancer Institute (NCI) Developmental Therapeutics Program Chemical Repository (32). The FDA-approved anticancer drug set is available from the Developmental Therapeutics Program at https://dtp.cancer.gov/organization/dscb/obtaining/available plates.htm. […] The stock solutions were prepared in dimethyl sulfoxide (DMSO, Sigma-Aldrich, St. Louis, MO, cat. D2650), except for the platinum compounds which were prepared in saline (Quality Biological, Gaithersburg, MD, cat. 114-055-101), at 800-fold the tested concentration and stored at -70 degrees C prior to their use. All drugs and investigational agents were tested over a range starting from a high concentration at or near the clinical Cmax and decreasing in half-log increments. If the clinical Cmax for an agent had not been determined, the highest concentration tested was 10 microM (Table 1).
Cell Culture. All cells were maintained in an incubator at 37 degrees C and 5% CO2 with 95% humidity. The PDC lines were cultured according to standard operating procedures established by the NCI PDMR (https://pdmr.cancer.gov). Briefly, all PDCs were thawed and cultured in Matrigel-coated flasks prepared with a working solution of 1X Ham's F-12 nutrient mix, without supplementation (Invitrogen, Waltham, MA, cat. 11765054), 100 U/mL penicillin-streptomycin (Invitrogen, cat. 15140122), and 2.5% Matrigel (Corning Inc., Corning, NY, cat. 354248) for the first three passages. All PDCs were cultured in complete DMEM/F-12 media containing advanced DMEM/F-12 (Invitrogen, cat. 12634028), 4.9% defined fetal bovine serum, heat inactivated (HyClone Laboratories Inc., Logan, UT, cat. SH30070.03HI), 389 ng/mL hydrocortisone (Sigma-Aldrich, cat. H4001), 9.7 ng/mL human EGF recombinant protein (Invitrogen, cat. PHG0313), 23.4 microg/mL adenine (Sigma-Aldrich, cat. A2786), 97.3 U/mL penicillin-streptomycin (Invitrogen, cat. 15140122), 1.9 mM L-glutamine (Invitrogen, cat. 25030081), and 9.7 microM Y-27632 dihydrochloride (Tocris Bioscience, Bristol, United Kingdom, cat. 1254). The PDCs were cultured in complete DMEM/F12 media without 10 microM Y-27632 dihydrochloride for at least two passages prior to the screen. The established cell lines NCI-H1341 and […] were cultured in DMEM/F-12, HEPES (Invitrogen, cat. 11330032), 5% defined fetal bovine serum (HyClone Laboratories Inc., cat. SH30070.03), ITS premix universal culture supplement [insulin (5 microg/mL), transferrin (5 microg/mL), and selenious acid (5 ng/mL)] […]

Row | SMILES | viability, T/C (compound 0.0316 µM) | viability, T/C (compound 0.1 µM) | viability, T/C (compound 0.316 µM) | viability, T/C (compound 1 µM) | viability, T/C (compound 3.16 µM) | viability, T/C (compound 10 µM) | IC50 (curve of compound) | other results
1 | COc1ccc([C@@H](O)c2cc(-c3ncnc4cc(N5CCOCC5)ccc34)c(F)cc2Cl)nn1 | 96.5% and 95.1% and 98.9% | 92% and 80.4% and 92.3% | 64.8% and 60.7% and 62% | 40.2% and 59.5% and 30.9% | 23.1% and 19.5% and 17.6% | 12.3% and 7.92% and 9.02% | 654 nM and 887 nM and 508 nM | 
2 | COc1cccc2c1C(=O)c1c(O)c3c(c(O)c1C2=O)CC(O)(C(=O)CO)CC3OC1CC(N)C(O)C(C)O1 (configuration not stated) | 67.3% and 67.5% and 58.1% | 70.1% and 60.3% and 55.9% | 56.7% and 50.1% and 38.2% | 23.9% and 24.6% and 18.1% | 1.61% and 1.62% and 1.55% | 0.78% and 0.83% and 0.85% | 409 nM and 319 nM and 140 nM | 
3 | Cc1cncc(-c2nc(NCCc3c[nH]c4ccccc34)c3ncn(C(C)C)c3n2)c1 |  | 90% [middle of 20 runs] | 95.3% [middle of 20 runs] | 87.7% [middle of 20 runs] |  | 4.87% [middle of 19 runs] |  | IC50 (compound alone, run of 08/16/2022): 3.7 µM [middle of 24 runs]
4 | Cn1ncnc1C1c2n[nH]c(=O)c3cc(F)cc(c23)NC1c1ccc(F)cc1 (configuration not stated) | 112% and 106% and 103% | 107% and 98.3% and 85.8% |  |  |  |  | > 100 nM | viability, T/C (compound 0.000316 µM): 105% and 97.2% and 110%; viability, T/C (compound 0.001 µM): 117% and 105% and 114%; viability, T/C (compound 0.00316 µM): 109% and 102% and 103%; viability, T/C (compound 0.01 µM): 108% and 101% and 100%
5 | NS(=O)(=O)OCC1CC(n2ccc3c(NC4CCc5ccccc54)ncnc32)CC1O (configuration not stated) | 96.3% and 93.7% and 99.8% | 93.4% and 87.1% and 85.3% | 56.3% and 53.1% and 37.4% | 34.4% and 34.5% and 28.6% | 23.7% and 26.2% and 21.3% | 16.6% and 20% and 16.1% | 474 nM and 421 nM and 239 nM | 
6 | Nc1ccccc1NC(=O)c1ccc(CNC(=O)OCc2cccnc2)cc1 | 83.7% and 98.2% and 88.8% | 83.4% and 95.8% and 93.6% | 88.2% and 84.4% and 77.7% | 61.2% and 70.2% and 50.5% | 21.5% and 29.6% and 23.1% | 2.22% and 2% and 2.21% | 1430 nM and 1740 nM and 1090 nM | 
7 | Nc1ccn(C2OC(CO)C(O)C2(F)F)c(=O)n1 (configuration not stated) | 30.9% and 36.6% and 26.1% | 35.4% and 37.9% and 25.6% | 50.1% and 45.6% and 30.7% | 43% and 49.6% and 32.6% | 40.7% and 51.3% and 33% | 42.1% (2×) and 29.6% | < 31.6 nM | 
8 | Nc1ncn(C2CC(O)C(CO)O2)c(=O)n1 (configuration not stated) | 94% and 91.7% and 104% | 87.1% and 96.7% and 97.3% | 97.1% and 81.1% and 97.3% | 72.5% and 71.4% and 83.5% |  |  | > 1000 nM | viability, T/C (compound 0.00316 µM): 95.4% and 108% and 105%; viability, T/C (compound 0.01 µM): 101% and 108% and 107%
9 | Nc1ncn(C2CC(O)C(CO)S2)c(=O)n1 (configuration not stated) |  |  |  |  |  |  | > 300 nM | viability, T/C (compound 0.000949 µM): 100% and 102% and 109%; viability, T/C (compound 0.003 µM): 99.7% and 106% and 114%; viability, T/C (compound 0.00949 µM): 94.9% and 101% and 108%; viability, T/C (compound 0.03 µM): 97.8% and 105% and 96%; viability, T/C (compound 0.0949 µM): 79.2% and 95.2% and 85%; viability, T/C (compound 0.3 µM): 81% and 89.7% and 68.3%
10 | O=C(C=Cc1cccc(S(=O)(=O)Nc2ccccc2)c1)NO | 96.9% and 99.7% and 91.8% | 97.1% and 90.4% and 87.2% | 77.8% and 90.1% and 67.2% | 56.2% and 65.4% and 52.6% | 45.1% and 51.9% and 33.4% | 16.7% and 20.2% and 6.75% | 1870 nM and 3100 nM and 1180 nM | 
11 | O=C(C=Cn1cnc(-c2cc(C(F)(F)F)cc(C(F)(F)F)c2)n1)NNc1cnccn1 |  |  |  |  |  |  | 99.9 nM and 111 nM and 72.8 nM | viability, T/C (compound 0.00949 µM): 99.2% and 101% and 90.7%; viability, T/C (compound 0.03 µM): 94.7% and 85.9% and 72.4%; viability, T/C (compound 0.0949 µM): 49.8% and 49% and 42.5%; viability, T/C (compound 0.3 µM): 34.6% and 34.1% and 25.4%; viability, T/C (compound 0.949 µM): 26.4% and 25% and 20.6%; viability, T/C (compound 3 µM): 23.9% and 17% and 14.4%
12 | O=C(c1cc(Cc2n[nH]c(=O)c3ccccc23)ccc1F)N1CCN(C(=O)C2CC2)CC1 | 100% and 101% (2×) | 103% and 100% and 104% | 99.4% and 99.2% and 99.5% | 108% and 99.4% and 100% | 106% and 98.4% and 101% | 94% and 92.4% and 92.1% | > 10000 nM | 
